# From patent US7629367B2, “N-(2-benzyl)-2-phenylbutanamides as androgen receptor modulators” (Merck & Co., Inc., priority 2004, dated 2009)
# Biological target: T1, androgen receptor (Homo sapiens, UniProt P10275)
# T1 sequence (P10275 1-920): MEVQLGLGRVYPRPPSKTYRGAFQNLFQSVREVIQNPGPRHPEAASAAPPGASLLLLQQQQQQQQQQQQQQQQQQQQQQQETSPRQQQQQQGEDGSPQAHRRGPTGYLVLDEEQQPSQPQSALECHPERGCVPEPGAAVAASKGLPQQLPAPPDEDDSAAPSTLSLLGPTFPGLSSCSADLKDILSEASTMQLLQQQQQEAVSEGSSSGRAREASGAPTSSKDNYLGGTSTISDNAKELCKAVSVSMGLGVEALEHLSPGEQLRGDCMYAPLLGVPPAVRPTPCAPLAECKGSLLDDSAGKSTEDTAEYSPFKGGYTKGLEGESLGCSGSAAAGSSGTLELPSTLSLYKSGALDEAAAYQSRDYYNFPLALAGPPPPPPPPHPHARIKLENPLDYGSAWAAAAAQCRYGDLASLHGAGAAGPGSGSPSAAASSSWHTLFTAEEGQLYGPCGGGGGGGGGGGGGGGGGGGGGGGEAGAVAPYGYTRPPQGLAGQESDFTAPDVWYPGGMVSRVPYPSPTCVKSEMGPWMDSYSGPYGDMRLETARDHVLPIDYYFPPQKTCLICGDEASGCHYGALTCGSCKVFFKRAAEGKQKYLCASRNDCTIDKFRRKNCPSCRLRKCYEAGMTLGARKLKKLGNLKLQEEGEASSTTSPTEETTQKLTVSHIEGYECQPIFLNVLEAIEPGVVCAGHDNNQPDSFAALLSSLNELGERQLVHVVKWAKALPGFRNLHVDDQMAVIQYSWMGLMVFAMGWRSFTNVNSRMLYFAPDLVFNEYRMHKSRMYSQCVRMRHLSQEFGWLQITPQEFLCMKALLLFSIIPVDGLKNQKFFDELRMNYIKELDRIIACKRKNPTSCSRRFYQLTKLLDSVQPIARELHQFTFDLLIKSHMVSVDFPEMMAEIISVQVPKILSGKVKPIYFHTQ
# Assay: biochemical assays (not further specified)
# Details: compound coupled from the second-peak acid (RT=21 min)
structure (smiles),measurement,value
"Cc1cnc(F)c(CNC(=O)C(O)(c2ccccc2)C(F)(F)C(F)(F)F)c1 (single isomer, unassigned) [Example 3-2, (2R or 2S)-3,3,4,4,4-pentafluoro-N-[(2-fluoro-5-methylpyridin-3-yl)methyl]-2-hydroxy-2-phenylbutanamide]",activity in the biochemical assays,active
